Source: BigSolDB 2.1

O=P(c1ccccc1)(c1ccccc1)c1cc(O)ccc1O
Conditions | solubility (mole fraction)
in 2-ethoxyethanol, 299.43 K | 0.0108
in 2-ethoxyethanol, 303.25 K | 0.0113
in 2-ethoxyethanol, 308.24 K | 0.0124
in 2-ethoxyethanol, 313.46 K | 0.0137
in 2-ethoxyethanol, 318.15 K | 0.0154
in 2-ethoxyethanol, 323.27 K | 0.0168
in 2-ethoxyethanol, 328.26 K | 0.018
in 2-ethoxyethanol, 333.45 K | 0.0198
in 2-ethoxyethanol, 338.75 K | 0.0223
in 2-ethoxyethanol, 343.15 K | 0.0236
in 2-ethoxyethanol, 348.15 K | 0.0252
in 2-ethoxyethanol, 353.14 K | 0.0279
in 2-ethoxyethanol, 358.06 K | 0.0295
in 2-ethoxyethanol, 363.15 K | 0.0316
in 2-ethoxyethanol, 368.16 K | 0.0348
in acetone, 299.45 K | 0.00175
in acetone, 303.26 K | 0.00188
in acetone, 308.24 K | 0.00216
in acetone, 313.47 K | 0.00236
in acetone, 318.13 K | 0.00262
in acetone, 323.26 K | 0.00296
in acetone, 328.25 K | 0.00332
in ethanol, 293.95 K | 0.00571
in ethanol, 298.26 K | 0.00634
in ethanol, 303.44 K | 0.00721
in ethanol, 308.26 K | 0.00787
in ethanol, 313.45 K | 0.00903
in ethanol, 318.47 K | 0.00979
in ethanol, 323.35 K | 0.0109
in ethanol, 328.43 K | 0.0117
in ethanol, 333.35 K | 0.0127
in methanol, 294.16 K | 0.00625
in methanol, 298.35 K | 0.00707
in methanol, 303.87 K | 0.00814
in methanol, 308.85 K | 0.00946
in methanol, 313.34 K | 0.0108
in methanol, 318.15 K | 0.0123
in methanol, 323.56 K | 0.0138
in toluene, 293.96 K | 0.00071
in toluene, 298.25 K | 0.00075
in toluene, 303.47 K | 0.00078
in toluene, 308.24 K | 0.00082
in toluene, 313.45 K | 0.00086
in toluene, 318.43 K | 0.00089
in toluene, 323.38 K | 0.00094
in toluene, 328.45 K | 0.00099
in water, 297.16 K | 0.00011
in water, 308.15 K | 0.00012
in water, 313.34 K | 0.00013
in water, 318.15 K | 0.00014
in water, 323.47 K | 0.00014
in water, 328.46 K | 0.00015
in water, 333.25 K | 0.00015
in water, 338.17 K | 0.00016
in water, 343.25 K | 0.00017
in water, 348.36 K | 0.00017
in water, 353.14 K | 0.00018
in water, 358.13 K | 0.00018
in water, 363.27 K | 0.00019
in water, 368.26 K | 0.00019
